In US9944611B2, “Polymerizable resins containing a 1,3,5-hexahydro-1,3,5-triazine moiety, methods of making, and dental compositions containing the same” (DENTSPLY SIRONA INC., priority 2013, dated 2018):

Test: Solubility of hydroxy-terminated TAT derivatives in water/EtOH (1:1)
Assay type: physicochemical
Excerpt: A sample of each of the examples was then subjected to further characterization and testing, including by NMR, along with pure TAT. The results are summarized in Table 1, which illustrates, among other things, that the increased amounts of DEA improved the solubility: […]

Question: For `C=CC(=O)N1CN(C(=O)C=C)CN(C(=O)C=C)C1` [Parent Sample (TAT), 1,3,5-triacryloyl-hexahydro-1,3,5-triazine], which “Solubility in water/EtOH (1:1) @ 25% w/w” value is on record?
Answer: insoluble
